Assays:
[1] = Isothermal titration calorimetry, single injection, XCage^8+; format: binding; details: toward Porp-2H and Porp-Zn
Method: Since the high binding affinity and aggregation of the two porphyrins prevent the accurate measurement of binding constants by isothermal titration calorimetry (ITC), a single injection experiment was performed in order to determine the binding enthalpy. The Gibbs free energy of the receptor-substrate complexation was estimated directedly from the corresponding fluorescent titrations, providing a value for TAS. Compared with ExBox^4+, the binding enthalpies of XCage^8+ are in the range of 7-8 kcal mol^−1 larger, a major contributing factor to the enhanced affinity.
Isothermal titration calorimetry: Isothermal titration was performed by TA Nano Isothermal Titration Calorimeter at 25° C. A Hastelloy cell was used with an active cell volume 190 μL. The stirring speed was set at 150 rpm. The solutions of receptors and substrates were prepared in Milli-Q water and allowed to equilibrate overnight if necessary. The aggregation of porphyrins and their high affinity binding prevented the accurate determination of binding constants, we thus only evaluated the binding enthalpy by single injection method.^S17

[2] = Displacement (competitive) fluorescence titration, XCage^8+ displacing ExBox^4+; format: binding; details: toward Porp-2H and Porp-Zn; water
Method: The changes in optical properties upon porphyrin encapsulation enable a facile study of the binding events. Fluorescence titrations of Porp-2H and Porp-Zn with ExBox^4+ yielded directly their binding constants in water. Since the binding affinities for XCage^8+ with Porp-2H and Porp-Zn are too high to be determined directly, competitive titrations were performed by displacing ExBox^4+ with XCage^8+ from the complex Porp-2H(Zn)⊂ExBox^4+. The binding affinities (Table 1) between ExBox^4+ and the two porphyrins are in the order of 10^7 M^−1. […] The samples were equilibrated for 6 h prior to the fluorescence titration studies. […]
Displacement fluorescence titration experiments: The displacement of porphyrins from Porp-2H⊂ExBox^4+ or Porp-Zn⊂ExBox^4+ by XCage^8+ to form Porp-2H⊂XCage^8+ or Porp-Zn⊂XCage^8+ regenerates the fluorescence emission of porphyrin, and the turn-on fluorescence was monitored as the signals to track the formation of the porphyrin inclusion complexes with XCage^8+. […] The samples were equilibrated at room temperature for 6 h, and the fluorescence intensity of each sample was recorded. The average fluorescence intensity of the three sets samples was plotted against the concentration of XCage^8+ to generate the binding isotherm, which was fitted by a displacement binding model^S15 to calculate the binding constant Ka using Origin Lab 8.6 software^S16.

- binding enthalpies larger compared with ExBox^4+ [1]: 7 to 8 kcal/mol
- enhancement in the binding affinities compared with ExBox^4+ [2]: ~1000 fold
SMILES: c1cc2ccc1C[n+]1ccc(cc1)-c1cc3cc(c1)-c1cc4cc(c1)-c1cc[n+](cc1)Cc1ccc(cc1)C[n+]1ccc(cc1)-c1cc(cc(c1)-c1cc(cc(c1)-c1cc[n+](cc1)Cc1ccc(cc1)C[n+]1ccc-3cc1)-c1cc[n+](cc1)C2)-c1cc[n+](cc1)Cc1ccc(cc1)C[n+]1ccc-4cc1 [XCage^8+]
